According to patent US7087626B2, “Pyrrole derivatives as pharmaceutical agents” (Eli Lilly and Company, priority 2001, dated 2006):
Where a name gives a salt, the structure may show the parent alone.

Each compound was assayed against T1, TGF-β Type I (RIT204D) receptor (Homo sapiens, UniProt P36897, T204D) (assay: TGF-β Receptor I (RIT204D) in vitro kinase reaction). Conditions: 6×-HIS cytoplasmic kinase domain, 4 uM ATP, 30° C., 1 hr.
T1 construct: The 6×-HIS tagged cytoplasmic kinase domain of each receptor was expressed and purified from Sf9 insect cell lysates; 6xHis; made in house; host or cells: Sf9 insect cells
T1 sequence (P36897 148-503 T204D limits assumed): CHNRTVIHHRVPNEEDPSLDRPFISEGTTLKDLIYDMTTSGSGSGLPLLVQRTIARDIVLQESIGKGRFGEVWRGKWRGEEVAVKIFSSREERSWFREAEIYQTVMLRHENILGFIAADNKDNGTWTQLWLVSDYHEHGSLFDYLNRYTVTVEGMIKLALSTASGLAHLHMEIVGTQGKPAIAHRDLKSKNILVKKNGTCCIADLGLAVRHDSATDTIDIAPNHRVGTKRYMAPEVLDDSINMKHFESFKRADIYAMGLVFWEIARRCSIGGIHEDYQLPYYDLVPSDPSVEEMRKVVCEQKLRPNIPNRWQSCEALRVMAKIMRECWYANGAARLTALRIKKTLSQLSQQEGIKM
Type: biochemical
Description: TGF-β Receptor I and II Purification and in vitro Kinase Reactions
For TGF-β Type I (RIT204D) and Type II (RII WT) Receptors: The 6×-HIS tagged cytoplasmic kinase domain of each receptor was expressed and purified from Sf9 insect cell lysates as briefly described below:
Cell pellets after 48-72 hrs of infection were lysed in lysis buffer (LB: 50 mM Tris pH 7.5, 150 mM NaCl, 50 mM NaF, 0.5% NP40 with freshly added 20 mM, β-mercaptoethanol, 10 mM imidazole, 1 mM PMSF, 1×EDTA-free Complete Protease Inhibitor (Boehringer Mannheim).
Reactions: 170-200 nM enzyme in 1×KB, compound dilution series in 1×KB/16% DMSO (20 uM to 1 nM final concentration with 4% DMSO final concentration), reactions started by adding ATP mix (4 uM ATP/1 uCi ^33P-[…]-ATP final concentrations) in 1×KB.
Reactions were incubated at 30° C. for 1 hr RIT204D or 40 min for RII WT. Reactions were stopped and quantitated using standard TCA/BSA precipitation onto Millipore FB glass fiber filter plates and by liquid scintillation counting on a MicroBeta JET.

IC50, < 20 µM:
CN(C)C(=O)c1cccc(Oc2ccc3c(-c4c(-c5ccccn5)nn5c4CCC5)ccnc3c2)c1 [N,N-Dimethyl-3-[4-(2-pyridin-2-yl-5,6-dihydro-4H-pyrrolo[1,2-b]pyrazol-3-yl)-quinolin-7-yloxy]-benzamide]

Each compound was assayed on TGF-β dependent luciferase production in Mv1Lu C1 cells (p3TP-Lux reporter) (assay: MV1LU p3TP-Lux assay). Conditions: TGF-β1 10 pM, 16-20 hrs.
Type: cell-based
Excerpt: A stable Mv1Lu clone (C1) containing the p3TP-Lux reporter was created by standard transfection and puromycin selection protocols. This stable clone was used to screen the example compounds for their ability to inhibit TGF-β dependent luciferase production as briefly described below: • 1. Plated Mv1Lu C1 cells in Wallac™ Black Isoplates • 2. Allowed cells to adhere overnight. • 3. Removed media and replaced with 0.5% FBS DMEM media • 4. Added the compound dilution series in 0.5% FBS/DMEM containing 1% DMSO such that the final compound concentration ranged from 20 uM to 0.1 nM and the final DMSO concentration was 0.2%. • 5. Incubated at 37° C./5% CO2 for 2 hrs. • 6. Added 0.5% FBS/DMEM as control or TGF-β1 diluted in 0.5% FBS/DMEM (final concentration of 10 pM) to the −/+ TGF-β wells respectively • 7. Incubated for 16-20 hrs. at 37° C./5% CO2 • 8. Removed media and rinsed 1× with PBS. • 9. Removed PBS and lysed the cells with 1× Passive Lysis Buffer (Promega) at room temperature. • 10. Counted relative luciferase activity on the MicroBeta JET by injecting Luciferase Assay Reagent II (PROMEGA).
The use of the above assay in measuring TGF-β responsive activity is described in Wrana, et al. Cell 71: 1003-1014 (1992).

IC50, < 20 µM:
NNC(=O)c1ccc2nccc(-c3c(-c4ccccn4)nn4c3CCC4)c2c1 [4-(2-Pyridin-2-yl-5,6-dihydro-4H-pyrrolo[1,2-b]pyrazol-3-yl)-quinoline-6-carboxylic acid hydrazide]
OCC1CCc2c(-c3ccnc4ccccc34)c(-c3ccccn3)nn21 (centres unmarked) [4-(6-Hydroxymethyl-2-pyridin-2-yl-5,6-dihydro-4H-pyrrolo[1,2-b]pyrazol-3yl)-quinoline]
COC(=O)c1ccc2nccc(-c3c(-c4cccc(C)n4)nn4c3CCC4)c2c1 [4-[2-(6-Methyl-pyridin-2-yl)-5,6-dihydro-4H-pyrrolo[1,2-b]pyrazol-3-yl]-quinoline-6-carboxylic acid methyl ester]
Cc1cccc(-c2nn3c(c2-c2ccc(F)cc2)CC(c2ccc(Cl)cc2)C3)n1 (centres unmarked) [5-(4-Chloro-phenyl)-3-(4-fluoro-phenyl)-2-(6-methyl-pyridin-2-yl)-5,6-dihydro-4H-pyrrolo[1,2-b]pyrazole]
Cc1cccc(-c2nn3c(c2-c2ccnc4ccc(-c5ccc6c(c5)OCO6)cc24)CCC3)n1 [6-Benzo[1,3]dioxol-5-yl-4-[2-(6-methyl-pyridin-2-yl)-5,6-dihydro-4H-pyrrolo[1,2-b]pyrazol-3-yl]-quinoline]
c1ccc(-c2nn3c(c2-c2ccnc4cc(OCCCN5CCCCCC5)ccc24)CCC3)nc1 [7-(3-azepan-1-yl-propoxy)-4-(2-pyridin-2-yl-5,6-dihydro-4H-pyrrolo[1,2-b]pyrazol-3-yl)-quinoline]
Cc1cccc(-c2nn3c(c2-c2ccnc4cc(OCCCCl)ccc24)CCC3)n1 [7-(3-chloro-propoxy)-4-[2-(6-methyl-pyridin-2-yl)-5,6-dihydro-4H-pyrrolo[1,2-b]pyrazol-3-yl]-quinoline]
Cc1cccc(-c2nn3c(c2-c2ccnc4c(F)cccc24)CCC3)n1 [8-Fluoro-4-[2-(6-methyl-pyridin-2-yl)-5,6-dihydro-4H-pyrrolo[1,2-b]pyrazol-3-yl]-quinoline]
Cc1cccc(-c2nn3c(c2-c2ccnc4cc(CCC(=O)N(C)C)ccc24)CCC3)n1 [N,N-Dimethyl-3-{4-[2-(6-methyl-pyridin-2-yl)-5,6-dihydro-4H-pyrrolo[1,2-b]pyrazol-3-yl]-quinolin-7-yl}-propionamide]
OCc1cccc(-c2nn3c(c2-c2ccnc4ccccc24)CCC3)n1 [[6-(3-Quinolin-4-yl-5,6-dihydro-4H-pyrrolo[1,2-b]pyrazol-2-yl)-pyridin-2-yl]-methanol]

These compounds were tested against T2, KDR (VEGFR2) (Homo sapiens, UniProt P35968) (assay: KDR (VEGFR2) in vitro kinase assay). Conditions: 1 ug enzyme, 1 uM ATP, 30° C., 20 min.
T2 construct: The 6×-HIS tagged cytoplasmic kinase domain of KDR was expressed and purified from Sf9 insect cell lysates; 6xHis; made in house; host or cells: Sf9 insect cells
Type: biochemical
Description: KDR (VEGFR2) Purification and in vitro Kinase Assay
The 6×-HIS tagged cytoplasmic kinase domain of KDR was expressed and purified from Sf9 insect cell lysates as described above with the following modification:
1× kinase buffer for chromatography washes and elution was changed to 100 mM HEPES pH 7.5, 10 mM MnCl2 and 5 mM β-mercaptoethanol. The resulting material was approximately 40% pure and had tyrosine autophosphorylation activity.
Reactions: 1 ug enzyme in 1×KB, compound dilution series in 1×KB/16% DMSO (20 uM to 1 nM final concentration with 4% DMSO final concentration), reactions were started by adding ATP mix (1 uM ATP/1 uCi ^33P-[…]-ATP final concentrations) in 1×KB.
Reactions were incubated at 30° C. for 20 min. The reactions were stopped and quantitated using standard TCA/BSA precipitation onto Millipore FC glass fiber filter plates and by liquid scintillation counting on a MicroBeta JET.

T2 sequence (P35968 834-1162 limits assumed, species assumed): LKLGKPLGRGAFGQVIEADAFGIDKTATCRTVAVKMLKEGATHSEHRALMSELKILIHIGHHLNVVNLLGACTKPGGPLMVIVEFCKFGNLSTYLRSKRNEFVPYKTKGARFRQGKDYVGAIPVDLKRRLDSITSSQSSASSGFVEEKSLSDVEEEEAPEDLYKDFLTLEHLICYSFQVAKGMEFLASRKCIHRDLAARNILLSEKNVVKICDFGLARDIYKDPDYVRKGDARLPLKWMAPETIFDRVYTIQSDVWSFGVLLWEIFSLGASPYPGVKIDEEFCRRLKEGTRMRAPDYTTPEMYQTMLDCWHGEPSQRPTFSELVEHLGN

IC50, < 20 µM:
NCCCOc1ccc2c(-c3c(-c4ccccn4)nn4c3CCC4)ccnc2c1 [3-[4-(2-pyridin-2-yl-5,6-dihydro-4H-pyrrolo[1,2-b]pyrazol-3-yl)-quinolin-7-yloxy]-propylamine]
c1ccc(-c2nn3c(c2-c2ccnc4cc(OCCCn5ccnn5)ccc24)CCC3)nc1 [4-(2-Pyridin-2-yl-5,6-dihydro-4H-pyrrolo[1,2-b]pyrazol-3-yl)-7-(3-[1,2,3]triazol-1-yl-propoxy)-quinoline]
c1ccc(-c2nn3c(c2-c2ccnc4cc(OCCCN5CCCC5)ccc24)CCC3)nc1 [4-(2-Pyridin-2-yl-5,6-dihydro-4H-pyrrolo[1,2-b]pyrazol-3-yl)-7-(3-pyrrolidin-1-yl-propoxy)-quinoline]
Oc1ccc2c(-c3c(-c4ccccn4)nn4c3CCC4)ccnc2c1 [4-(2-Pyridin-2-yl-5,6-dihydro-4H-pyrrolo[1,2-b]pyrazol-3-yl)-quinolin-7-ol]
CC(=O)NCCNC(=O)c1ccc2c(-c3c(-c4ccccn4)nn4c3CCC4)ccnc2c1 [4-(2-Pyridin-2-yl-5,6-dihydro-4H-pyrrolo[1,2-b]pyrazol-3-yl)-quinoline-7-carboxylic acid (2-acetylamino-ethyl)-amide]
c1ccc(-c2nn3c(c2-c2ccnc4ccccc24)OCC3)nc1 [4-(6-Pyridin-2-yl-2,3-dihydro-pyrazolo[5,1-b]oxazol-7-yl)-quinoline dioxylate salt]
Cc1cccc(-c2nn3c(c2-c2ccnc4cc(OCCCN5CCOCC5)ccc24)CCC3)n1 [4-[2-(6-Methyl-pyridin-2-yl)-5,6-dihydro-4H-pyrrolo[1,2-b]pyrazol-3-yl]-7-(3-morpholin-4-yl-propoxy)-quinoline]
Cc1cccc(-c2nn3c(c2-c2ccnc4cc(C(=O)NCCCN(C)C)ccc24)CCC3)n1 [4-[2-(6-Methyl-pyridin-2-yl)-5,6-dihydro-4H-pyrrolo[1,2-b]pyrazol-3-yl]-quinoline-7-carboxylic acid (3-dimethylamino-propyl)-amide]
COC(=O)c1ccc2c(-c3c(-c4cccc(C)n4)nn4c3CCC4)ccnc2c1 [4-[2-(6-Methyl-pyridin-2-yl)-5,6-dihydro-4H-pyrrolo[1,2-b]pyrazol-3-yl]-quinoline-7-carboxylic acid methyl ester]
CN(CCCOc1ccc2c(-c3c(-c4ccccn4)nn4c3CCC4)ccnc2c1)Cc1ccccc1 [Benzyl-methyl-{3-[4-(2-pyridin-2-yl-5,6-dihydro-4H-pyrrolo[1,2-b]pyrazol-3-yl)-quinolin-7-yloxy]-propyl}-amine]
CCN(CC)CCCOc1ccc2c(-c3c(-c4cccc(C)n4)nn4c3CCC4)ccnc2c1 [Diethyl-(3-{4-[2-(6-methyl-pyridin-2-yl)-5,6-dihydro-4H-pyrrolo[1,2-b]pyrazol-3-yl]-quinolin-7-yloxy}-propyl)-amine]
CN(C)C(=O)c1cccc(Oc2ccc3c(-c4c(-c5ccccn5)nn5c4CCC5)ccnc3c2)c1 [N,N-Dimethyl-3-[4-(2-pyridin-2-yl-5,6-dihydro-4H-pyrrolo[1,2-b]pyrazol-3-yl)-quinolin-7-yloxy]-benzamide]
